pEC50, pIC50, pKi: −log10 of the molar value. Read-outs that look alike come from different tables or passages of the source.
Experiments:
hEP2/Gqs5 = target: T1, hEP2/Gqs5 (Homo sapiens, UniProt P43116); experiment: FLIPR calcium signal, hEP2; format: cell-based
T1 construct: expressed in transfected cells; host or cells: HEK-293(EBNA)
Procedure: (§1) HEK-293(EBNA) cells, stably expressing one type or subtype of recombinant human prostaglandin receptors (prostaglandin receptors expressed: hDP/Gqs5; hEP1; hEP2/Gqs5; hEP3A/Gqi5; hEP4/Gqs5; hFP; hIP; hTP), were cultured in 100 mm culture dishes in high-glucose DMEM medium containing 10% fetal bovine serum, 2 mM 1-glutamine, 250 μg/ml geneticin (G418) and 200 μg/ml hygromycin B as selection markers, and 100 units/ml penicillin G, 100 μg/ml streptomycin and 0.25 μg/ml amphotericin B. • (b) Calcium Signal Studies on the FLIPR™
(§2) Cells were seeded at a density of 5×10^4 cells per well in Biocoat® Poly-D-lysine-coated black-wall, clear-bottom 96-well plates (Becton-Dickinson) and allowed to attach overnight in an incubator at 37° C. Cells were then washed two times with HBSS-HEPES buffer (Hanks Balanced Salt Solution without bicarbonate and phenol red, 20 mM HEPES, pH 7.4) using a Denley Cellwash plate washer (Labsystems). After 45 minutes of dye-loading in the dark, using the calcium-sensitive dye Fluo-4 AM at a final concentration of 2 μM, plates were washed four times with HBSS-HEPES buffer to remove excess dye leaving 100 μl in each well. Plates were re-equilibrated to 37° C. for a few minutes.
(§3) Cells were excited with an Argon laser at 488 nm, and emission was measured through a 510-570 nm bandwidth emission filter (FLIPR™, Molecular Devices, Sunnyvale, Calif.). Drug solution was added in a 50 μl volume to each well to give the desired final concentration. The peak increase in fluorescence intensity was recorded for each well. On each plate, four wells each served as negative (HBSS-HEPES buffer) and positive controls (standard agonists: BW245C (hDP); PGE2 (hEP1; hEP2/Gqs5; hEP3A/Gqi5; hEP4/Gqs5); PGF2α (hFP); carbacyclin (hIP); U-46619 (hTP), depending on receptor). The peak fluorescence change in each drug-containing well was then expressed relative to the controls.
(§4) Compounds were tested in a high-throughput (HTS) or concentration-response (CoRe) format. In the HTS format, forty-four compounds per plate were examined in duplicates at a concentration of 10^−5 M. To generate concentration-response curves, four compounds per plate were tested in duplicates in a concentration range between 10^−5 and 10^−11 M. The duplicate values were averaged. In either, HTS or CoRe format each compound was tested on at least 3 separate plates using cells from different passages to give an n≧3.

hEP4/Gqs5 = target: T2, hEP4/Gqs5 (Homo sapiens, UniProt P35408); experiment: FLIPR calcium signal, hEP4; format: cell-based
T2 construct: expressed in transfected cells; host or cells: HEK-293(EBNA)
T2 sequence (P35408 whole entry): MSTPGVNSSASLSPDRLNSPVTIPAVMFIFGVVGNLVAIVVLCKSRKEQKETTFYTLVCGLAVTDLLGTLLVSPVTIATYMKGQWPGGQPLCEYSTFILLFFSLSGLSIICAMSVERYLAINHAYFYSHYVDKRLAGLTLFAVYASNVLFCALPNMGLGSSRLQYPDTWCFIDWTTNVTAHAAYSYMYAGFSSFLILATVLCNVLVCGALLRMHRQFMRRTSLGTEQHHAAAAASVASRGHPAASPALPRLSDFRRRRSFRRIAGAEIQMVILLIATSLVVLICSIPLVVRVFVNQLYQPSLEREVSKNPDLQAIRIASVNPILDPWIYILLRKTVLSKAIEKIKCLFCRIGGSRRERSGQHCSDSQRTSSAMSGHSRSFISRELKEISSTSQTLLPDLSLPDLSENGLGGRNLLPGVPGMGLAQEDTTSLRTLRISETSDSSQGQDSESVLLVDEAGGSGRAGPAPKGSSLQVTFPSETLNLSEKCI
Procedure: as §1, §2, §3, §4

hEP3A/Gqi5 = target: T3, hEP3A/Gqi5 (Homo sapiens, UniProt P43115); experiment: FLIPR calcium signal, hEP3A; format: cell-based
T3 construct: expressed in transfected cells; host or cells: HEK-293(EBNA)
T3 sequence (P43115 1-390): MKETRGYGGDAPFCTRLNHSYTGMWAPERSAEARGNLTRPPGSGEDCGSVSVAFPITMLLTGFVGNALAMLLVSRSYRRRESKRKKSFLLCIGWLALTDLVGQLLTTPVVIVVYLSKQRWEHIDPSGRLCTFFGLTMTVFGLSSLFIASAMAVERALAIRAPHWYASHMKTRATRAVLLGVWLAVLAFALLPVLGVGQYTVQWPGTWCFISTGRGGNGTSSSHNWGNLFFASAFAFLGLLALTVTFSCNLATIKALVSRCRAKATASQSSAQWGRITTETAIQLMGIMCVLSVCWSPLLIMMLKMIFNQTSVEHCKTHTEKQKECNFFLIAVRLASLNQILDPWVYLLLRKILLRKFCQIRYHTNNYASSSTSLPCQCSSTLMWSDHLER
Procedure: as §1, §2, §3, §4

human EP2 receptors = target: T4, human EP2 receptors (Homo sapiens, UniProt P43116); experiment: Competition radioligand binding ([3H]PGE2), EP2; details: for pIC50: read-out: BINDING IC50 HEP2; for pKi: unit inferred, read-out: EP2 data Ki
T4 construct: expressed in transfected cells; host or cells: HEK 293
T4 sequence (P43116 whole entry): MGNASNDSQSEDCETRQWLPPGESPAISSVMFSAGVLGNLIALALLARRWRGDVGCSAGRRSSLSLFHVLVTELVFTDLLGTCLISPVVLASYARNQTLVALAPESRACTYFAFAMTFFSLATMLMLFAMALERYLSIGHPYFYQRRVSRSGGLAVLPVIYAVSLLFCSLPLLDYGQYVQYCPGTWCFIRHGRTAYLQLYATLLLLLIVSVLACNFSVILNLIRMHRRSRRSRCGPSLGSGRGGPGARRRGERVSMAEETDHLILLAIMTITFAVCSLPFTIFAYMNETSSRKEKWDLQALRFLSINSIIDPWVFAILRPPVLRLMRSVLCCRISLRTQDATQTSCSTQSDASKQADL
Procedure: Competition binding experiments were performed in a medium containing Hank's balanced salt solution, […], membranes (˜60 μg protein) or 2×10^5 cells from HEK 293 cells stably expressing human EP2 receptors, [^3H]PGE2 (10 nM) and various concentrations of test compounds in a total volume of 300 μl. Reaction mixtures were incubated at 23° C. for 60 min, and were filtered over Whatman GF/B filters under vacuum. Filters were washed three times with 5 ml ice-cold buffer containing 50 mM Tris/HCl (pH 7.3). Non-specific binding was estimated in the presence of excess unlabeled PGE2 (10 μM). Binding data fitted to the binding model for a single class of binding sites, using nonlinear regression analysis. IC50 values thus obtained were converted to Ki using the equation of Ki=(IC50/(1+[L]/KD) where [L] represents PGE2 concentration (10 nM) and KD the dissociation constant for [^3H]PGE2 at human EP2 receptors (40 nM).
(§5) HEK-293 cells stably expressing the human or feline FP receptor, or EP1, EP2, or EP4 receptors were washed with TME buffer, scraped from the bottom of the flasks, and homogenized for 30 sec using a Brinkman PT 10/35 polytron. TME buffer was added to achieve a final 40 ml volume in the centrifuge tubes (the composition of TME is 100 mM TRIS base, 20 mM MgCl2, […]; 10N HCl is added to achieve a pH of 7.4).
(§6) The cell homogenate was centrifuged at 19000 r.p.m. for 20 min at 4° C. using a Beckman Ti-60 rotor. The resultant pellet was resuspended in TME buffer to give a final 1 mg/ml protein concentration, as determined by Biorad assay. Radioligand binding competition assays vs. [^3H-]17 —phenyl PGF2α (5 nM) were performed in a 100 μl volume for 60 min. Binding reactions were started by adding plasma membrane fraction. The reaction was terminated by the addition of 4 ml ice-cold TRIS-HCl buffer and rapid filtration through glass fiber GF/B filters using a Brandel cell harvester. The filters were washed 3 times with ice-cold buffer and oven dried for one hour.
(§7) [^3H-] PGE2 (specific activity 180 Ci mmol) was used as the radioligand for EP receptors. [^3H] 17-phenyl PGF2α was employed for FP receptor binding studies. Binding studies employing EP1, EP2, EP4 and FP receptors were performed in duplicate in at least three separate experiments. A 200 μl assay volume was used. Incubations were for 60 min at 25° C. and were terminated by the addition of 4 ml of ice-cold 50 mM TRIS-HCl, followed by rapid filtration through Whatman GF/B filters and three additional 4 ml washes in a cell harvester (Brandel). Competition studies were performed using a final concentration of 5 nM [^3H]—PGE2, or 5 nM [^3H] 17-phenyl PGF2α and non-specific binding determined with 10^−5M of unlabeled PGE2, or 17-phenyl PGF2α, according to receptor subtype studied.

EP4 receptors = target: T5, EP4 receptors (Homo sapiens, UniProt P35408); experiment: Radioligand binding ([3H]PGE2), EP4; details: unit inferred; read-out: EP4 data KI
T5 construct: expressed in transfected cells; host or cells: HEK-293
T5 sequence (P35408 whole entry): as the sequence (P35408 whole entry) above
Procedure: as §5, §6, §7

[1] = FLIPR Ca2+ signal, HEK-293(EBNA), read-out: FUNCTIONAL EC50 HEP2
[2] = FLIPR Ca2+ signal, HEK-293(EBNA), read-out: FUNCTIONAL EC50 HEP4
[3] = FLIPR Ca2+ signal, HEK-293(EBNA), read-out: FUNCTIONAL EC50 HEP3A
[4] = read-out: FUNCTIONAL Ca2+ EC50 HEP4

T1 sequence (P43116 whole entry): as the sequence (P43116 whole entry) above

| SMILES | pEC50 (hEP2/Gqs5; [1]) | pEC50 (hEP4/Gqs5; [2]) | pIC50 (human EP2 receptors) | other results |
| --- | --- | --- | --- | --- |
| CCCC1(C(O)c2cccc([C@H]3[C@H](O)CC(=O)[C@@H]3C/C=C\CCCC(=O)OC)c2)CCC1 (some centres unmarked) | < 5.00 | < 5.00 |  | pEC50 (hEP3A/Gqi5; [3]): < 5.00 |
| CCCC1(C(O)c2cccc([C@H]3[C@H](O)CC(=O)[C@@H]3C/C=C\CCCC(=O)O)c2)CCC1 (some centres unmarked) | 5.28 |  |  | pEC50 (hEP3A/Gqi5; [3]): 5.77 |
| CCCC1(C(O)c2cccc([C@H]3[C@H](O)CC(=O)[C@@H]3C/C=C\CCCC(=O)NCC)c2)CCC1 (some centres unmarked) | < 5.00 | < 5.00 |  |  |
| CCCC1(C(O)c2cccc([C@@H]3[C@@H](CCCCCCC(=O)O)[C@H](Cl)C[C@H]3O)c2)CCC1 (some centres unmarked) | 5.83 |  |  | pEC50 (hEP3A/Gqi5; [3]): 5.51 |
| COC(=O)CCC/C=C\C[C@@H]1[C@@H](c2ccc(C(C)(C)C)cc2)[C@H](O)C[C@H]1Cl | < 5.00 |  |  | pEC50 (hEP3A/Gqi5; [3]): < 5.00 |
| COC(=O)CCC/C=C\C[C@H]1C(=O)C[C@@H](O)[C@@H]1c1ccc(C(O)C2CCCCC2)cc1 (some centres unmarked) | < 5.00 | < 5.00 |  |  |
| CCCC1(C(O)c2cccc([C@@H]3[C@@H](Cc4cccc(OCC(=O)O)c4)[C@H](Cl)C[C@H]3O)c2)CCC1 (some centres unmarked) | 6.58 |  | 5.28 |  |
| O=C(O)CCC/C=C\C[C@H]1C(=O)C[C@@H](O)[C@@H]1c1ccc2c(c1)CCC2O (some centres unmarked) | 6.39 |  | 5.64 |  |
| CC(C)(CO)c1ccc([C@H]2[C@H](O)CC(=O)[C@@H]2CCCCCCC(=O)O)cc1 | 6.28 |  | 4.73 |  |
| CC(C)(CO)c1ccc([C@@H]2[C@@H](CCCCCCC(=O)O)[C@H](Cl)C[C@H]2O)cc1 | 6.15 | < 5.00 | 5.05 |  |
| O=C(O)CCC/C=C\C[C@@H]1[C@@H](c2ccc(CO)cc2)[C@H](O)C[C@H]1Cl |  |  | 4.88 |  |
| COC(=O)CCCCCC[C@@H]1[C@@H](c2ccc(CO)cc2)[C@H](O)C[C@H]1Cl |  | < 5.00 |  |  |
| CC(C)(C)C(O)c1ccc([C@@H]2[C@@H](C/C=C\CCCC(=O)O)[C@H](Cl)C[C@H]2O)cc1 (some centres unmarked) | 6.11 | < 5.00 | 5.81 |  |
| CC(C)(C)C(O)c1ccc([C@@H]2[C@@H](CCCCCCC(=O)O)[C@H](Cl)C[C@H]2O)cc1 (some centres unmarked) | 5.90 | < 5.00 | 5.44 |  |
| COC(=O)CCC/C=C\C[C@@H]1[C@@H](c2ccc(C(O)C(C)C)cc2)[C@H](O)C[C@H]1Cl (some centres unmarked) | < 5.00 | < 5.00 |  |  |
| COC(=O)CCCCCC[C@@H]1[C@@H](c2ccc(C(O)C(C)C)cc2)[C@H](O)C[C@H]1Cl (some centres unmarked) | < 5.00 | < 5.00 |  |  |
| CCCCCC(O)c1ccc([C@H]2CCC(=O)[C@@H]2CCCc2ccc(C(=O)O)s2)cc1 (some centres unmarked) |  |  |  | pEC50 (hEP4/Gqs5; [4]): < 5.00 |
| COC(=O)CCC/C=C\C[C@@H]1[C@@H](c2ccc(C(C)(C)CO)cc2)[C@H](O)C[C@H]1Cl [drawing 113] |  | < 5.00 |  |  |
| COC(=O)CCCCCC[C@@H]1[C@@H](c2ccc(C(C)(C)CO)cc2)[C@H](O)C[C@H]1Cl [drawing 115] | < 5.00 | 4.58 |  |  |
| COC(=O)CCC/C=C\C[C@@H]1[C@@H](c2ccc(C(C)(C)CO)cc2)[C@H](O)C[C@H]1Cl [drawing 117] | < 5.00 |  | 4.31 |  |
| CC(C)(CO)c1ccc([C@@H]2[C@@H](C/C=C\CCCC(=O)O)[C@H](Cl)C[C@H]2O)cc1 [drawing 118] | 6.76 |  | 5.38 |  |
| COC(=O)CCCCCC[C@@H]1[C@@H](c2ccc(C(C)(C)CO)cc2)[C@H](O)C[C@H]1Cl [drawing 119] | < 5.00 | < 5.00 |  |  |
| COC(=O)CCCCCC[C@@H]1[C@@H](c2ccc(C(O)C(C)(C)C)cc2)[C@H](O)C[C@H]1Cl (some centres unmarked) [drawing 131] | 5.30 | < 5.00 |  |  |
| COC(=O)CCCCCC[C@@H]1[C@@H](c2ccc(C(O)C(C)(C)C)cc2)[C@H](O)C[C@H]1Cl (some centres unmarked) [drawing 133] | 5.18 | < 5.00 |  |  |
| CCCCCC(O)c1ccc(N2C(=O)CC[C@@H]2COc2ccc(C(=O)O)cc2)cc1 (some centres unmarked) [drawing 157] |  |  |  | pKi (EP4 receptors): 5.06; pKi (human EP2 receptors): 4.64 |
| CCCCCC(O)c1ccc(N2C(=O)CC[C@@H]2/C=C/Cc2ccc(C(=O)O)s2)cc1 (some centres unmarked) [drawing 172] |  |  |  | pEC50 (hEP3A/Gqi5; read-out: Other Receptors EC50 hEP3A): 5.85 |
| CCCCCC(O)c1ccc(N2C(=O)CC[C@@H]2COc2ccc(C(=O)O)cc2)cc1 (some centres unmarked) [drawing 185] |  |  |  | EC50 (hEP2/Gqs5; unit inferred, other columns of the table in nM, read-out: EP2 data flipr EC50): 7280 nM; pKi (EP4 receptors): 5.06; pKi (human EP2 receptors): 4.64 |
| CCCC1([C@@H](O)c2ccc([C@H]3CCC(=O)[C@@H]3C/C=C\CCCC(=O)O)cc2)CCC1 [drawing 194] |  |  |  | pEC50 (hEP2/Gqs5; read-out: FUNCTIONAL Ca2+ EC50 HEP2): < 5.00; pEC50 (hEP4/Gqs5; [4]): < 5.00 |

— patent publication US7799821B2, “Therapeutic compounds” (Allergan, Inc., priority 2004, dated 2010)
